The record followed here is paper PMC5218480 (PLoS ONE, 2017).

The test system of this test is MV-4-11 cells. Nature of the test: Gene expression microarray analysis (Affymetrix PrimeView) and GSEA. The format is cell-based, human. Further details: RFU PODN (11730768_x_at) / Fold change /veh PODN (11730768_x_at) / RFU LINC00158 (11744669_a_at) / Fold change /veh LINC00158 (11744669_a_at) / RFU DUSP10 (11751237_a_at) / Fold change /veh DUSP10 (11751237_a_at) / RFU ID3 (11757404_x_at) / Fold change /veh ID3 (11757404_x_at) / RFU PLEKHG5 (11737974_s_at) / Fold change /veh PLEKHG5 (11737974_s_at) / RFU LRRC4B (11730491_at) / Fold change /veh LRRC4B (11730491_at) / RFU GIMAP4 (11747438_a_at) / Fold change /veh GIMAP4 (11747438_a_at) / RFU KRT8 (11758183_x_at) / Fold change /veh KRT8 (11758183_x_at) / RFU CNN1 (11734310_a_at) / Fold change /veh CNN1 (11734310_a_at) / RFU VPS37D (11726825_at) / Fold change /veh VPS37D (11726825_at) / RFU C10orf10 (11716522_x_at) / Fold change /veh C10orf10 (11716522_x_at) / RFU KIR2DL2 /// KIR2DL4 /// KIR2DL5A /// KIR2DL5B /// KIR2DS1 /// KIR2DS2 /// KIR2DS3 /// KIR2DS4 /// KIR3DL3 /// KIR3DL3 /// KIR3DS1 (11738374_at) / Fold change /veh KIR2DL2 /// KIR2DL4 /// KIR2DL5A /// KIR2DL5B /// KIR2DS1 /// KIR2DS2 /// KIR2DS3 /// KIR2DS4 /// KIR3DL3 /// KIR3DL3 /// KIR3DS1 (11738374_at) / RFU C1QL1 (11718748_at) / Fold change /veh C1QL1 (11718748_at) / RFU TMPRSS4 (11747572_a_at) / Fold change /veh TMPRSS4 (11747572_a_at) / RFU HAMP (11756126_x_at) / Fold change /veh HAMP (11756126_x_at) / RFU RNFT2 (11725882_a_at) / Fold change /veh RNFT2 (11725882_a_at) / RFU NR4A2 (11747474_a_at) / Fold change /veh NR4A2 (11747474_a_at) / RFU ABCC12 (11746883_a_at) / Fold change /veh ABCC12 (11746883_a_at) / RFU TMEM136 (11760407_x_at) / Fold change /veh TMEM136 (11760407_x_at) / RFU CLDN22 /// WWC2 (11732394_at) / Fold change /veh CLDN22 /// WWC2 (11732394_at) / RFU HLA-DPB1 (11760878_x_at) / Fold change /veh HLA-DPB1 (11760878_x_at) / RFU SPINT1 (11716480_a_at) / Fold change /veh SPINT1 (11716480_a_at) / RFU GAP43 (11754022_s_at) / Fold change /veh GAP43 (11754022_s_at) / RFU A4GNT (11735810_at) / Fold change /veh A4GNT (11735810_at) / RFU PRB3 (11715151_x_at) / Fold change /veh PRB3 (11715151_x_at) / RFU TUBB4B (11761932_at) / Fold change /veh TUBB4B (11761932_at) / RFU CAPN14 (11732068_a_at) / Fold change /veh CAPN14 (11732068_a_at) / RFU TMCC2 (11721928_a_at) / Fold change /veh TMCC2 (11721928_a_at) / RFU IRGQ (11745062_a_at) / Fold change /veh IRGQ (11745062_a_at) / RFU FAM174B (11720279_a_at) / Fold change /veh FAM174B (11720279_a_at) / RFU TMPRSS4 (11748680_a_at) / Fold change /veh TMPRSS4 (11748680_a_at) / RFU FAM212B (11763350_a_at) / Fold change /veh FAM212B (11763350_a_at) / RFU PLEKHG5 (11743358_a_at) / Fold change /veh PLEKHG5 (11743358_a_at) / RFU ZSCAN30 (11745921_a_at) / Fold change /veh ZSCAN30 (11745921_a_at) / RFU CMKLR1 (11741424_a_at) / Fold change /veh CMKLR1 (11741424_a_at) / RFU LOC101060620 /// MAPK8IP1 (11723275_at) / Fold change /veh LOC101060620 /// MAPK8IP1 (11723275_at) / RFU SPTSSB (11747773_x_at) / Fold change /veh SPTSSB (11747773_x_at) / RFU PRSS12 (11739890_at) / Fold change /veh PRSS12 (11739890_at) / RFU BIN1 (11741810_x_at) / Fold change /veh BIN1 (11741810_x_at) / RFU WNT11 (11732464_a_at) / Fold change /veh WNT11 (11732464_a_at) / RFU C10orf10 (11716521_a_at) / Fold change /veh C10orf10 (11716521_a_at) / RFU C5orf56 (11738089_at) / Fold change /veh C5orf56 (11738089_at) / RFU CYB561 (11721691_x_at) / Fold change /veh CYB561 (11721691_x_at) / RFU ANKRD19P (11752326_a_at) / Fold change /veh ANKRD19P (11752326_a_at) / RFU OR2T12 /// OR2T33 /// OR2T8 (11738714_s_at) / Fold change /veh OR2T12 /// OR2T33 /// OR2T8 (11738714_s_at) / RFU VCAN (11748164_a_at) / Fold change /veh VCAN (11748164_a_at) / RFU JSRP1 (11732532_at) / Fold change /veh JSRP1 (11732532_at) / RFU KRTAP10-11 (11738290_x_at) / Fold change /veh KRTAP10-11 (11738290_x_at) / RFU MYO3A (11730013_a_at) / Fold change /veh MYO3A (11730013_a_at) / RFU EBF3 (11725865_a_at) / Fold change /veh EBF3 (11725865_a_at) / RFU CAMK2N1 (11719241_x_at) / Fold change /veh CAMK2N1 (11719241_x_at) / RFU C5orf56 (11738088_a_at) / Fold change /veh C5orf56 (11738088_a_at) / RFU OLFML3 (11715873_a_at) / Fold change /veh OLFML3 (11715873_a_at) / RFU LOC100653217 /// NTM (11731650_a_at) / Fold change /veh LOC100653217 /// NTM (11731650_a_at) / RFU MAPK11 (11762145_a_at) / Fold change /veh MAPK11 (11762145_a_at) / RFU FIZ1 (11724087_x_at) / Fold change /veh FIZ1 (11724087_x_at) / RFU OASL (11726364_x_at) / Fold change /veh OASL (11726364_x_at) / RFU SOX15 (11748057_x_at) / Fold change /veh SOX15 (11748057_x_at) / RFU CD79A (11719716_a_at) / Fold change /veh CD79A (11719716_a_at) / RFU HIST1H1D (11736915_at) / Fold change /veh HIST1H1D (11736915_at) / RFU CASKIN2 (11723855_a_at) / Fold change /veh CASKIN2 (11723855_a_at) / RFU LOC730098 (11760151_x_at) / Fold change /veh LOC730098 (11760151_x_at) / RFU OR4N2 (11742367_at) / Fold change /veh OR4N2 (11742367_at) / RFU PRRT2 (11749266_a_at) / Fold change /veh PRRT2 (11749266_a_at) / RFU SNX32 (11753110_a_at) / Fold change /veh SNX32 (11753110_a_at) / RFU CDHR5 (11726645_a_at) / Fold change /veh CDHR5 (11726645_a_at) / RFU RCAN1 (11760418_a_at) / Fold change /veh RCAN1 (11760418_a_at) / RFU FAM167A (11723789_a_at) / Fold change /veh FAM167A (11723789_a_at) / RFU FAM26E (11764081_at) / Fold change /veh FAM26E (11764081_at) / RFU ISYNA1 (11749810_s_at) / Fold change /veh ISYNA1 (11749810_s_at) / RFU ACY1 (11761880_at) / Fold change /veh ACY1 (11761880_at) / RFU 11764098_at / Fold change /veh 11764098_at / RFU SAMD14 (11745864_x_at) / Fold change /veh SAMD14 (11745864_x_at) / RFU NPB (11741838_a_at) / Fold change /veh NPB (11741838_a_at) / RFU TMPRSS6 (11731388_a_at) / Fold change /veh TMPRSS6 (11731388_a_at) / RFU KRTAP10-2 (11738614_at) / Fold change /veh KRTAP10-2 (11738614_at) / RFU ARHGAP8 /// PRR5-ARHGAP8 (11727945_x_at) / Fold change /veh ARHGAP8 /// PRR5-ARHGAP8 (11727945_x_at) / RFU KRTAP5-7 /// NADSYN1 (11734609_at) / Fold change /veh KRTAP5-7 /// NADSYN1 (11734609_at) / RFU RASL12 (11751679_a_at) / Fold change /veh RASL12 (11751679_a_at) / RFU CDKN2B (11736163_a_at) / Fold change /veh CDKN2B (11736163_a_at) / RFU PRF1 (11729649_at) / Fold change /veh PRF1 (11729649_at) / RFU, ZNF638 /// ZNF638-IT1 / Fold change vs veh, ZNF638 /// ZNF638-IT1 / RFU, PANK3 / Fold change vs veh, PANK3 / RFU, SH3YL1 / Fold change vs veh, SH3YL1 / RFU, ZEB2 / Fold change vs veh, ZEB2 / RFU, NRIP1 / Fold change vs veh, NRIP1 / RFU, PTTG1IP / Fold change vs veh, PTTG1IP / RFU, CAPN2 / Fold change vs veh, CAPN2 / RFU, MED14 / Fold change vs veh, MED14 / RFU, SNORA58 / Fold change vs veh, SNORA58 / RFU, C1orf63 / Fold change vs veh, C1orf63 / RFU, LRRFIP1 / Fold change vs veh, LRRFIP1 / RFU, NDUFAF7 / Fold change vs veh, NDUFAF7 / RFU, SLC12A2 / Fold change vs veh, SLC12A2 / RFU, IBTK / Fold change vs veh, IBTK / RFU, ESF1 / Fold change vs veh, ESF1 / Fold change vs veh, TMEM50B / RFU, TAOK1 / Fold change vs veh, TAOK1 / RFU, ACBD3 / Fold change vs veh, ACBD3 / RFU, TMA16 / Fold change vs veh, TMA16 / RFU, RWDD3 / Fold change vs veh, RWDD3 / RFU, BCAT1 / Fold change vs veh, BCAT1 / RFU, EDEM3 / Fold change vs veh, EDEM3 / RFU, TMEM33 / Fold change vs veh, TMEM33 / RFU, WDR75 / Fold change vs veh, WDR75 / RFU, AHCTF1 / Fold change vs veh, AHCTF1 / RFU, TFRC / Fold change vs veh, TFRC / RFU, ZDHHC17 / Fold change vs veh, ZDHHC17 / RFU, NOM1 / Fold change vs veh, NOM1 / RFU, ARL8B / Fold change vs veh, ARL8B / RFU, ZBTB11 / Fold change vs veh, ZBTB11 / RFU, TAMM41 / Fold change vs veh, TAMM41 / RFU, KIAA1704 /// LOC100996395 / Fold change vs veh, KIAA1704 /// LOC100996395 / RFU, ING1 / Fold change vs veh, ING1 / RFU, TRMT61B / Fold change vs veh, TRMT61B / RFU, FUBP3 / Fold change vs veh, FUBP3 / RFU, TP53 / Fold change vs veh, TP53 / RFU, TNKS2 / Fold change vs veh, TNKS2 / RFU, ZFP14 / Fold change vs veh, ZFP14 / RFU, ACTR2 / Fold change vs veh, ACTR2 / RFU, PPP3R1 / Fold change vs veh, PPP3R1 / RFU, PIK3R1 / Fold change vs veh, PIK3R1 / RFU, HNRNPA1 / Fold change vs veh, HNRNPA1 / RFU, RNF170 / Fold change vs veh, RNF170 / RFU, ZNF28 / Fold change vs veh, ZNF28 / RFU, RNGTT / Fold change vs veh, RNGTT / RFU, OGT / Fold change vs veh, OGT / RFU, BRD1 / Fold change vs veh, BRD1 / RFU, MARS / Fold change vs veh, MARS / RFU, ZNF655 / Fold change vs veh, ZNF655 / RFU, FAHD1 / Fold change vs veh, FAHD1 / RFU, BDP1 / Fold change vs veh, BDP1 / RFU, LRRCC1 / Fold change vs veh, LRRCC1 / RFU, ARID1A / Fold change vs veh, ARID1A / RFU, ZNF146 / Fold change vs veh, ZNF146 / RFU, ZNF330 / Fold change vs veh, ZNF330 / RFU, GPN3 / Fold change vs veh, GPN3 / RFU, C9orf123 / Fold change vs veh, C9orf123 / RFU, N4BP2L2 / Fold change vs veh, N4BP2L2 / RFU, ARFIP1 / Fold change vs veh, ARFIP1 / RFU, FAM179B / Fold change vs veh, FAM179B / RFU, BCL10 / Fold change vs veh, BCL10 / RFU, UHRF1BP1L / Fold change vs veh, UHRF1BP1L / RFU, BET1 / Fold change vs veh, BET1 / RFU, CNOT2 / Fold change vs veh, CNOT2 / RFU, ZNF268 / Fold change vs veh, ZNF268 / Fold change vs veh, ZNF507 / RFU, DGCR2 / Fold change vs veh, DGCR2 / RFU, WDSUB1 / Fold change vs veh, WDSUB1 / Fold change vs veh, HSP90B1 /// MIR3652 / RFU, ADSS / Fold change vs veh, ADSS / RFU, GK / Fold change vs veh, GK / RFU, ZNF148 / Fold change vs veh, ZNF148 / RFU, TAF9 / Fold change vs veh, TAF9 / RFU, SLC1A5 / Fold change vs veh, SLC1A5 / RFU, SLMO2 / Fold change vs veh, SLMO2 / RFU, ABCC4 / Fold change vs veh, ABCC4 / RFU, LOC101060439 /// RAP1B / Fold change vs veh, LOC101060439 /// RAP1B / RFU, RFX7 / Fold change vs veh, RFX7 / RFU, GTPBP10 / Fold change vs veh, GTPBP10 / RFU, CNEP1R1 / Fold change vs veh, CNEP1R1 / RFU, BIVM-ERCC5 /// ERCC5 / Fold change vs veh, BIVM-ERCC5 /// ERCC5 / RFU, ILF3 / Fold change vs veh, ILF3 / RFU 11762660_at / Fold change /veh 11762660_at / RFU VCAN (11757783_s_at) / Fold change /veh VCAN (11757783_s_at) / RFU DDX43 (11728927_at) / Fold change /veh DDX43 (11728927_at) / RFU KRT8 (11758188_x_at) / Fold change /veh KRT8 (11758188_x_at) / RFU NKD1 (11759106_at) / Fold change /veh NKD1 (11759106_at) / RFU SRD5A1 (11742802_a_at) / Fold change /veh SRD5A1 (11742802_a_at) / RFU TPSAB1 /// TPSB2 (11721975_s_at) / Fold change /veh TPSAB1 /// TPSB2 (11721975_s_at) / RFU GSTM3 (11746129_a_at) / Fold change /veh GSTM3 (11746129_a_at) / RFU IL23R (11737362_x_at) / Fold change /veh IL23R (11737362_x_at) / RFU TMEM51 (11727254_a_at) / Fold change /veh TMEM51 (11727254_a_at) / RFU PIWIL2 (11732686_x_at) / Fold change /veh PIWIL2 (11732686_x_at) / RFU ORM1 (11744905_x_at) / Fold change /veh ORM1 (11744905_x_at) / RFU CCDC152 (11743942_at) / Fold change /veh CCDC152 (11743942_at) / RFU ECM1 (11717891_a_at) / Fold change /veh ECM1 (11717891_a_at) / RFU IL23R (11748794_a_at) / Fold change /veh IL23R (11748794_a_at) / RFU TNFAIP8L3 (11732012_x_at) / Fold change /veh TNFAIP8L3 (11732012_x_at) / RFU MBOAT4 (11741988_at) / Fold change /veh MBOAT4 (11741988_at) / RFU 11764193_at / Fold change /veh 11764193_at / RFU TMEM53 (11763286_at) / Fold change /veh TMEM53 (11763286_at) / RFU MAGEB2 (11727129_at) / Fold change /veh MAGEB2 (11727129_at) / RFU TMEM200A (11744735_a_at) / Fold change /veh TMEM200A (11744735_a_at) / RFU CCDC152 (11751479_a_at) / Fold change /veh CCDC152 (11751479_a_at) / RFU FAM211A (11726209_a_at) / Fold change /veh FAM211A (11726209_a_at) / RFU RGS16 (11746705_a_at) / Fold change /veh RGS16 (11746705_a_at) / RFU VCAN (11755009_s_at) / Fold change /veh VCAN (11755009_s_at) / RFU RHOB (11743442_s_at) / Fold change /veh RHOB (11743442_s_at) / RFU RGS16 (11720943_a_at) / Fold change /veh RGS16 (11720943_a_at) / RFU RGS16 (11720944_at) / Fold change /veh RGS16 (11720944_at) / RFU, VPS4B / Fold change vs veh, VPS4B / RFU, CREB1 / Fold change vs veh, CREB1 / RFU, DNAJC13 / Fold change vs veh, DNAJC13 / RFU, GNAQ / Fold change vs veh, GNAQ / RFU, CDK5R1 / Fold change vs veh, CDK5R1 / RFU, ZRANB3 / Fold change vs veh, ZRANB3 / RFU, CUL4A / Fold change vs veh, CUL4A / RFU, CCNY / Fold change vs veh, CCNY / RFU, UFL1 / Fold change vs veh, UFL1 / RFU, COG3 / Fold change vs veh, COG3 / RFU, DIAPH2 / Fold change vs veh, DIAPH2 / RFU, SKA2 / Fold change vs veh, SKA2 / RFU, AFF3 / Fold change vs veh, AFF3 / RFU, LMF1 / Fold change vs veh, LMF1 / RFU, IPO11 / Fold change vs veh, IPO11 / RFU, DFFB / Fold change vs veh, DFFB / RFU, FOXP1 / Fold change vs veh, FOXP1 / RFU, CARD8 / Fold change vs veh, CARD8 / RFU, STRN3 / Fold change vs veh, STRN3 / RFU, ADK / Fold change vs veh, ADK / RFU, RASSF2 / Fold change vs veh, RASSF2 / RFU, WIPF1 / Fold change vs veh, WIPF1 / RFU, LARP1B / Fold change vs veh, LARP1B / RFU, RASA1 / Fold change vs veh, RASA1 / RFU, RB1 / Fold change vs veh, RB1 / RFU, PPFIA1 / Fold change vs veh, PPFIA1 / RFU, MAT2A / Fold change vs veh, MAT2A / RFU, CCT5 / Fold change vs veh, CCT5 / RFU, WDR92 / Fold change vs veh, WDR92 / RFU, CUX1 / Fold change vs veh, CUX1 / RFU, TTC7A / Fold change vs veh, TTC7A / RFU, TMEM135 / Fold change vs veh, TMEM135 / RFU, DEPTOR / Fold change vs veh, DEPTOR / RFU, CPM / Fold change vs veh, CPM / RFU, DNAJB6 / Fold change vs veh, DNAJB6 / RFU, CACNA2D3 / Fold change vs veh, CACNA2D3 / RFU, DTX4 / Fold change vs veh, DTX4 / RFU, TFCP2 / Fold change vs veh, TFCP2 / RFU, GMCL1 /// GMCL1P1 / Fold change vs veh, GMCL1 /// GMCL1P1 / RFU, AEBP2 / Fold change vs veh, AEBP2 / RFU, SNHG1 /// SNORD22 /// SNORD25 /// SNORD26 /// SNORD27 /// SNORD28 /// SNORD29 /// SNORD31 / Fold change vs veh, SNHG1 /// SNORD22 /// SNORD25 /// SNORD26 /// SNORD27 /// SNORD28 /// SNORD29 /// SNORD31 / Fold change (Aza/veh), C12orf56 (ProbeSet 11735607_a_at) / Fold change (ACY-1035/veh), C12orf56 (ProbeSet 11735607_a_at) / Fold change (Aza/veh), FGFR1OP (ProbeSet 11751329_s_at) / Fold change (ACY-1035/veh), FGFR1OP (ProbeSet 11751329_s_at) / Fold change (Aza/veh), VPS36 (ProbeSet 11739960_a_at) / Fold change (ACY-1035/veh), VPS36 (ProbeSet 11739960_a_at) / RFU SYPL1 (11715823_x_at) / Fold change /veh SYPL1 (11715823_x_at) / RFU IGFBP7 (11715501_s_at) / Fold change /veh IGFBP7 (11715501_s_at) / RFU REEP3 (11722064_at) / Fold change /veh REEP3 (11722064_at) / RFU IGLL1 (11728026_x_at) / Fold change /veh IGLL1 (11728026_x_at): dose or concentration left out as unconfirmed. Particulars: ProbeSet 11728314_at; LIST B.

For the compound `Nc1ncn([C@@H]2O[C@H](CO)[C@@H](O)[C@H]2O)c(=O)n1` [azacitidine], the “Fold change vs veh, ZNF148” value is 0.99.
